Assay: relative permittivity at various frequencies (dimensionless)
Conditions: Reentrant cavity resonator

C=C(F)C(F)(F)F [2,3,3,3-tetrafluoro-1-propene]
Conditions | relative permittivity
248.51 K, 10580 kPa, Liquid, Frequency=120 MHz | 11.2191
248.71 K, 8271 kPa, Liquid, Frequency=120 MHz | 11.1539
248.95 K, 6475 kPa, Liquid, Frequency=120 MHz | 11.0761
249.16 K, 4746 kPa, Liquid, Frequency=120 MHz | 11.0131
249.37 K, 3089 kPa, Liquid, Frequency=120 MHz | 10.9467
249.67 K, 10580 kPa, Liquid, Frequency=120 MHz | 11.1976
249.71 K, 8272 kPa, Liquid, Frequency=120 MHz | 11.1217
249.75 K, 6476 kPa, Liquid, Frequency=120 MHz | 11.0617
249.76 K, 4750 kPa, Liquid, Frequency=120 MHz | 10.9998
249.77 K, 3089 kPa, Liquid, Frequency=120 MHz | 10.9379
273.14 K, 10470 kPa, Liquid, Frequency=120 MHz | 9.47583
273.41 K, 10970 kPa, Liquid, Frequency=120 MHz | 9.48739
273.5 K, 7893 kPa, Liquid, Frequency=120 MHz | 9.37498
273.59 K, 8235 kPa, Liquid, Frequency=120 MHz | 9.38477
273.69 K, 4628 kPa, Liquid, Frequency=120 MHz | 9.24224
273.79 K, 5794 kPa, Liquid, Frequency=120 MHz | 9.28399
273.95 K, 1601 kPa, Liquid, Frequency=120 MHz | 9.10293
274.32 K, 3368 kPa, Liquid, Frequency=120 MHz | 9.17004
275.05 K, 1116 kPa, Liquid, Frequency=120 MHz | 9.04939
297.54 K, 7675 kPa, Liquid, Frequency=120 MHz | 7.93035
297.56 K, 247.8 kPa, Gas, Frequency=340 MHz | 1.03846
297.57 K, 4942 kPa, Liquid, Frequency=120 MHz | 7.79441
297.57 K, 10760 kPa, Liquid, Frequency=120 MHz | 8.06626
297.58 K, 2537 kPa, Liquid, Frequency=120 MHz | 7.65994
297.61 K, 259.6 kPa, Gas, Frequency=340 MHz | 1.04022
297.63 K, 225.5 kPa, Gas, Frequency=340 MHz | 1.03469
297.67 K, 100.9 kPa, Gas, Frequency=340 MHz | 1.01502
321.5 K, 203 kPa, Gas, Frequency=340 MHz | 1.02682
321.53 K, 644.4 kPa, Gas, Frequency=340 MHz | 1.09027
321.55 K, 817.8 kPa, Gas, Frequency=340 MHz | 1.11132
321.63 K, 4262 kPa, Liquid, Frequency=120 MHz | 6.51012
321.65 K, 7089 kPa, Liquid, Frequency=120 MHz | 6.70204
321.65 K, 10590 kPa, Liquid, Frequency=120 MHz | 6.89633
345.73 K, 218.5 kPa, Gas, Frequency=340 MHz | 1.02515
345.74 K, 874.9 kPa, Gas, Frequency=340 MHz | 1.10115
345.75 K, 693 kPa, Gas, Frequency=340 MHz | 1.08291
345.89 K, 4404 kPa, Liquid, Frequency=120 MHz | 5.30782
345.93 K, 6822 kPa, Liquid, Frequency=120 MHz | 5.57121
346.01 K, 10290 kPa, Liquid, Frequency=120 MHz | 5.83949
365.22 K, 908.6 kPa, Gas, Frequency=340 MHz | 1.09359
365.25 K, 713.8 kPa, Gas, Frequency=340 MHz | 1.07604
365.3 K, 230.9 kPa, Gas, Frequency=340 MHz | 1.0241

[Ar] [argon]
Gas, Frequency=340 MHz
Conditions | relative permittivity
272.94 K, 8533 kPa | 1.05077
273.04 K, 5986 kPa | 1.03462
273.17 K, 3359 kPa | 1.01869
297.44 K, 9503 kPa | 1.05146
297.45 K, 3675 kPa | 1.01893
297.45 K, 6614 kPa | 1.03509
321.92 K, 4005 kPa | 1.01899
321.93 K, 7248 kPa | 1.03523

O=C=O [carbon dioxide]
Conditions | relative permittivity
234.7 K, 5002 kPa, Liquid, Frequency=270 MHz | 1.73109
234.76 K, 4012 kPa, Liquid, Frequency=270 MHz | 1.729
234.77 K, 2015 kPa, Liquid, Frequency=270 MHz | 1.72473
234.78 K, 3015 kPa, Liquid, Frequency=270 MHz | 1.72689
235.13 K, 6031 kPa, Liquid, Frequency=270 MHz | 1.73287
248.98 K, 4006 kPa, Liquid, Frequency=270 MHz | 1.68089
249.12 K, 3018 kPa, Liquid, Frequency=270 MHz | 1.67791
249.15 K, 2012 kPa, Liquid, Frequency=270 MHz | 1.67486
251.38 K, 6015 kPa, Liquid, Frequency=270 MHz | 1.68401
251.72 K, 5017 kPa, Liquid, Frequency=270 MHz | 1.6809
252.7 K, 6996 kPa, Liquid, Frequency=270 MHz | 1.685
273.6 K, 7004 kPa, Liquid, Frequency=270 MHz | 1.59893
273.75 K, 6019 kPa, Liquid, Frequency=270 MHz | 1.5936
274.12 K, 5019 kPa, Liquid, Frequency=270 MHz | 1.58749
274.66 K, 4024 kPa, Liquid, Frequency=270 MHz | 1.58054
297.38 K, 1176 kPa, Gas, Frequency=340 MHz | 1.01138
297.57 K, 7002 kPa, Liquid, Frequency=270 MHz | 1.45192
297.6 K, 5992 kPa, Gas, Frequency=340 MHz | 1.10291
297.61 K, 6991 kPa, Liquid, Frequency=270 MHz | 1.45145
297.64 K, 2005 kPa, Gas, Frequency=340 MHz | 1.02052
297.7 K, 3002 kPa, Gas, Frequency=340 MHz | 1.03319
297.73 K, 3998 kPa, Gas, Frequency=340 MHz | 1.0487
297.75 K, 4570 kPa, Gas, Frequency=340 MHz | 1.05962

F/C=C/C(F)(F)F [trans-1,3,3,3-tetrafluoropropene]
Conditions | relative permittivity
248.98 K, 2078 kPa, Liquid, Frequency=200 MHz | 3.44336
249 K, 4121 kPa, Liquid, Frequency=200 MHz | 3.45458
249.02 K, 6251 kPa, Liquid, Frequency=200 MHz | 3.46583
249.06 K, 8448 kPa, Liquid, Frequency=200 MHz | 3.47696
249.07 K, 10680 kPa, Liquid, Frequency=200 MHz | 3.48805
273.01 K, 7894 kPa, Liquid, Frequency=200 MHz | 3.19554
273.19 K, 10470 kPa, Liquid, Frequency=200 MHz | 3.21071
273.23 K, 4627 kPa, Liquid, Frequency=200 MHz | 3.17426
273.36 K, 1598 kPa, Liquid, Frequency=200 MHz | 3.15254
273.46 K, 486 kPa, Liquid, Frequency=200 MHz | 3.14403
273.66 K, 73.9 kPa, Gas, Frequency=340 MHz | 1.00498
274.29 K, 139 kPa, Gas, Frequency=340 MHz | 1.00927
297.59 K, 79.6 kPa, Gas, Frequency=340 MHz | 1.00458
297.59 K, 240.4 kPa, Gas, Frequency=340 MHz | 1.01364
297.6 K, 349.7 kPa, Gas, Frequency=340 MHz | 1.02033
297.63 K, 5735 kPa, Liquid, Frequency=200 MHz | 2.92689
297.63 K, 10470 kPa, Liquid, Frequency=200 MHz | 2.96416
297.64 K, 140.5 kPa, Gas, Frequency=340 MHz | 1.00794
297.65 K, 7982 kPa, Liquid, Frequency=200 MHz | 2.94513
297.67 K, 1491 kPa, Liquid, Frequency=200 MHz | 2.88752
297.67 K, 3490 kPa, Liquid, Frequency=200 MHz | 2.90668
321.55 K, 211.2 kPa, Gas, Frequency=340 MHz | 1.01063
321.63 K, 210.1 kPa, Gas, Frequency=340 MHz | 1.0105
321.76 K, 3999 kPa, Liquid, Frequency=200 MHz | 2.66845
321.78 K, 7249 kPa, Liquid, Frequency=200 MHz | 2.70714
321.79 K, 10980 kPa, Liquid, Frequency=200 MHz | 2.74469
345.96 K, 227.2 kPa, Gas, Frequency=340 MHz | 1.01022
345.97 K, 225.2 kPa, Gas, Frequency=340 MHz | 1.01005
346.5 K, 4377 kPa, Liquid, Frequency=200 MHz | 2.42553
346.53 K, 6645 kPa, Liquid, Frequency=200 MHz | 2.46858
346.59 K, 9481 kPa, Liquid, Frequency=200 MHz | 2.51185
365.54 K, 236.9 kPa, Gas, Frequency=340 MHz | 1.00981
365.79 K, 239.2 kPa, Gas, Frequency=340 MHz | 1.00997
365.83 K, 4248 kPa, Liquid, Frequency=200 MHz | 2.19675
365.87 K, 6046 kPa, Liquid, Frequency=200 MHz | 2.25994
365.93 K, 9015 kPa, Liquid, Frequency=200 MHz | 2.33081
